According to patent publication US20130017174A1, “COMPOSITIONS AND METHODS FOR INCREASING HEALTH AND REDUCING PATHOGENIC BACTERIA IN ANIMALS” (The Board of Trustees of the University of Arkansas, priority 2011, published 2013):

Tested on: Salmonella enteritidis
Assay: In vitro testing: SE recovery from inoculated chick starter feed
Assay type: cell-based
Conditions: feed with increasing amounts of sodium nitrate (1-1000 ppm), 42° C. for 24 hours, vs control (FIG. 1)
Description: Briefly, 1.25 grams of chick starter feed was measured into 13×100 mm borosilicate tubes and autoclaved. Nitrate was mixed into the feed before autoclaving at concentrations of 1000 ppm, 100 ppm, 10 ppm, or 1 ppm (Sodium Nitrate, Sigma Chemical Co., St. Louis, Mo.).
The feed also contained 0.1% lactose as a prebiotic. The feed was suspended in 4.5 mL sterile saline and inoculated with 0.5 mL of Salmonella enteriditis (SE) culture containing approximately 10^4 cfu/ml. The tubes were treated with either 0.6 ml of 10^6 cfu/ml of FloraMax-B11® probiotic or saline as a negative control. After administering the treatment, the tubes were agitated and incubated at 42° C. for 24 hours. The tubes then were agitated and the content was serially diluted and plated on Brilliant Green Agar (BGA) containing novobiocin (250 ml) and nalidixic acid (20 μl/ml) to select for SE. Typical SE colonies were counted after 24 hours of incubation.

With `O=[N+]([O-])[O-].[Na+]` [sodium nitrate, Sodium Nitrate] the “recovery of SE” value was “decreased recovery of SE as compared to the control”.
